The term logD denotes lipophilicity at a set pH, counting ionised and neutral species.

Data set [1] is described as follows: Partition coefficient, shake-flask method, 1-octanol/phosphate buffer. In kind it is physicochemical. The note with it: shake-flask 1-octanol/phosphate buffer (NaH2PO4/Na2HPO4), pH 7.41 ± 0.01, 25 °C, system stirred 12 h, absorbance and emission read-out, standard additions. The text has this:
The effectiveness of biomolecules is mainly due to specific structural and physicochemical properties. In principle, the properties of peptides/proteins are very diverse and directly related to their bioactivity. […] With the manifestation of hydrophilic properties, the occurrence of a hydration process is possible; swelling, increasing their mass and volume, while it is possible to partially limit the solubility of the molecule, in which case the peptide molecule becomes more unstable. At the isoelectric point, peptides have the least ability to bind water, i.e., to hydrate; the hydration shell around the peptide molecules breaks down so that they combine to form, for example, aggregates. When the pH of the medium changes, the peptide macromolecule is charged, and its hydration capacity changes. […] Due to the obtained values, the studied compounds can be arranged in the following sequence from hydrophilic to hydrophobic (lipophilic): Rh-S > Rh-S5 > Rh-S6. This corresponds to the data from the morphology of the compound, where an analogous order of increasing porosity/hydrophilicity was found (Figure 3). It can be seen that the replacement of natural proline with unnatural steric restricted amino acids such as 1-aminocyclopentanecarboxylic acid (Ac5c) and 1-aminocyclohexanecarboxylic acid (Ac6c) (neuropeptides Rh-S5 and Rh-S6) leads to an increase in lipophilicity, which would assist passage through the brain barrier and increase the efficiency of the molecule. […]
The partition coefficients of the spinorphin-rhodamine derivatives were determined in a 1-octanol/phosphate buffer system (NaH2PO4/Na2HPO4, pH 7.41 ± 0.01). […] After separation, the absorbance and emission of the solutions of the two phases were measured and the amount of dissolved analyte was determined by the method of standard additions. […] The partition coefficient was calculated by the following equation: P = C^oct/buf/C^buf/oct, where C^oct/buf and C^buf/oct are the molar concentrations of the solute in the mutually saturated phases of 1-octanol and buffer.

Data set [2] concerns tonic seizures (MES). As to the kind of experiment: Maximal electroshock test (MES test). It is filed as in vivo, mice. The note with it: i.c.v.; for % Mortality / % Protection / No. of Animals Protected/No. of Animals Tested: male ICR mice; for No. of Animals Protected/No. of Animals Tested: test 10 min after administration. The source says: The screeing test for anticonvulsant activity of drugs was perfomed on male ICR mice (25–30 g), purchased by the vivarium of the Institute of Neurobiology, BAS. They were kept in standard laboratory conditions and cages in groups of 5–6 per cage with ad libitum access to commercial pellets for rodents and water. After a week of adaptation, all mice were allocated in groups of 6 according to their treatment and test procedure. Each mouse was used only for one experiment. All procedures were performed in agreement with the European Communities Council Directive 2010/63/EU. The experimental design was approved by the Bulgarian Food Safety Agency (#300/№ 5888–0183).
[…] The test for anticonvulsant activity was carried out 10 min after drug administration.
The MES test was carried out with the device used for the 6-Hz test according to the protocol reported in [38, 39]. The criterion for protection was accepted when the mouse […].
For the 6-Hz test and MES a Fisher’s exact test (two-tailed) was applied. A one-way ANOVA of variance was used for the ivPTZ test and a Dunnet post hoc test in case of significance. Statistical significance was accepted at p ≤ 0.05 vs. control (Fisher’s exact test). The calculations were carried out with SigmaPlot program (11.0 version) and Graph Pad Prizm (Version 7.04) (GraphPad Software, San Diego, CA, USA).
On the technique in general: The maximal electroshock test induces tonic seizures with an electrical stimulus.

Data set [3] has as its system Candida albicans. As to the kind of experiment: Antifungal activity test, paper disc diffusion. It is filed as cell-based. To be noted: C. albicans, Sabouraud Agar, 20 μL of 50 mg/mL, 24 h. The method, then: Tests were carried out on the Candida albicans fungus. The concentration of the extract tested was 50 mg/mL. The culture of each test fungus was taken to be tilted using an asepticose needle and rejuvenated in a liquid medium. In each medium, there is a spore density of […]. The prepared medium Sabouraud Agar (SA) in a petri dish with each culture was scratched on the top, then placed on the paper disc (paper disc), and then a peptide sample of 20 μL was placed on the paper disc. It was further incubated for 24 h and the resistance zone formed measured.

The nature of data set [4]: Antioxidant activity, DPPH radical scavenging. To be noted: 77 μL sample + 3 mL DPPH, 30 min in the dark, 517 nm, standard BHT. The method, then:
The determination of the antioxidant activity of the new peptide derivatives was carried out by inserting 77 μL of hL extract into a test tube, then adding 3 mL of DPPH solution, homogenizing, and incubating for 30 min in a dark room. The measurement of antioxidant activity was performed by a spectrophotometer with a wavelength of 517 nm. The treatment was carried out three times. The determination of activity for the standard solution was conducted by first diluting 0.025 BHT (butylated hydroxytoluene) with 1 mL of methanol. Then 3 mL of DPPH was added to 77 μL of BHT solution in a test tube, homogenized, and incubated for 30 min in a dark room. The treatment was repeated three times. For the blank, only 77 μL of methanol plus 3 mL of DPPH were used, then homogenized and incubated for 30 min in a dark room. According to Millauskas et al. (2004), the free radical scavenging activity of the sample was calculated by the formula:(3) DPPH radical concentration (%)=Acontrol− Asample/Acontrol × 100 where Acontrol is the absorbance value of the control reaction and Asample is the absorbance value in the presence of the tested extracts sample.
A general note: Loss of DPPH colour is used to gauge radical scavenging.

Marks after values point to notes of the source that are not given here. Where a SMILES comes first, the peptide text is derived from it. [ ]: non-standard residue; d: D form. The star is where a group is joined. X1 = CCN(CC)c1ccc2c(c1)Oc1cc(N(CC)CC)ccc1C2c1ccccc1C(=O)*; Ac6c = NC1(C(=O)O)CCCCC1; Ac5c = NC1(C(=O)O)CCCC1

Take `CCN(CC)c1ccc2c(c1)Oc1cc(N(CC)CC)ccc1C2c1ccccc1C(=O)N[C@@H](CC(C)C)C(=O)N[C@H](C(=O)N[C@H](C(=O)N[C@@H](Cc1ccc(O)cc1)C(=O)NC1(C(=O)N[C@@H](Cc2c[nH]c3ccccc23)C(=O)N[C@H](C(N)=O)[C@@H](C)O)CCCCC1)C(C)C)C(C)C` [Rh-S6, rhodamineB-Leu-Val-Val-Tyr-Ac6c-Trp-Thr-NH2] (X1-LVVY[Ac6c]WT-NH2): in data set [1], the logD is -0.197. In addition, the “% Mortality” value in data set [2] (MES test, dose 5 µg/10 µL) is listed as 0%; in data set [2] (MES test, dose 10 µg/10 µL), 0%; in data set [2] (MES test, dose 20 µg/10 µL), 0%. Also, the “% Protection” value is recorded as 100 * % in data set [2] (MES test, dose 5 µg/10 µL); 100 * % in data set [2] (MES test, dose 10 µg/10 µL); 100 * % in data set [2] (MES test, dose 20 µg/10 µL). In addition, the “No. of Animals Protected/No. of Animals Tested” value is reported as 6/6 in data set [2] (MES test, dose 5 µg/10 µL); 6/6 in data set [2] (MES test, dose 10 µg/10 µL); 6/6 in data set [2] (MES test, dose 20 µg/10 µL). The “mortality in the MES test (in words)” value in data set [2] (mice, at the three doses studied (5, 10 and 20 μg)) was “no mortality”. In addition, the “protection in the MES test” value in data set [2] (mice, at the three doses studied (5, 10 and 20 μg), p ≤ 0.05 compared to control) was determined as 100%. For the same compound, the “antifungal activity, diameter of the inhibitory zone (in words)” value in data set [3] is reported as “slightly higher than the negative control”. Further, the “antioxidant activity compared to the positive control (in words)” value in data set [4] is recorded as “similar”.
On to `CCN(CC)c1ccc2c(c1)Oc1cc(N(CC)CC)ccc1C2c1ccccc1C(=O)N[C@@H](CC(C)C)C(=O)N[C@H](C(=O)N[C@H](C(=O)N[C@@H](Cc1ccc(O)cc1)C(=O)NC1(C(=O)N[C@@H](Cc2c[nH]c3ccccc23)C(=O)N[C@H](C(N)=O)[C@@H](C)O)CCCC1)C(C)C)C(C)C` [Rh-S5, rhodamineB-Leu-Val-Val-Tyr-Ac5c-Trp-Thr-NH2] (X1-LVVY[Ac5c]WT-NH2), for which the logD in data set [1] was -0.168. Besides, in data set [2] (MES test, dose 5 µg/10 µL), the “% Mortality” value came to 17% and the “% Protection” value is 41%. In data set [2] (MES test, dose 10 µg/10 µL), the “% Mortality” value stood at 17%, the “% Protection” value was 42% and the “No. of Animals Protected/No. of Animals Tested” value is 5/12. Besides, in data set [2] (MES test, dose 20 µg/10 µL), the “% Mortality” value was 17%, the “% Protection” value is given as 67 * % and the “No. of Animals Protected/No. of Animals Tested” value is 4/6. The “protective potency against tonic seizures (in words)” value in data set [2] (MES test, mice, dose of 20 µg, p ≤ 0.05 compared to control) is recorded as “stronger protective potency compared to the heptapeptide Rh-S”. In addition, the “antifungal activity, diameter of the inhibitory zone (in words)” value in data set [3] was “slightly higher than the negative control”. The “antioxidant activity compared to the positive control (in words)” value in data set [4] is “weak”.
Take `CCN(CC)c1ccc2c(c1)Oc1cc(N(CC)CC)ccc1C2c1ccccc1C(=O)N[C@@H](CC(C)C)C(=O)N[C@H](C(=O)N[C@H](C(=O)N[C@@H](Cc1ccc(O)cc1)C(=O)N1CCC[C@H]1C(=O)N[C@@H](Cc1c[nH]c2ccccc12)C(=O)N[C@H](C(N)=O)[C@@H](C)O)C(C)C)C(C)C` [Rh-S, rhodamineB-Leu-Val-Val-Tyr-Pro-Trp-Thr-NH2] (X1-LVVYPWT-NH2): the logD in data set [1] amounted to 0.54. The “% Mortality” value in data set [2] (MES test, dose 5 µg/10 µL) stood at 50%; in data set [2] (MES test, dose 10 µg/10 µL) it was 0%; in data set [2] (MES test, dose 20 µg/10 µL), 33%. Also, the “% Protection” value was 50% in data set [2] (MES test, dose 5 µg/10 µL); 50% in data set [2] (MES test, dose 10 µg/10 µL); 67 * % in data set [2] (MES test, dose 20 µg/10 µL). Further, the “No. of Animals Protected/No. of Animals Tested” value in data set [2] (MES test, dose 5 µg/10 µL) is 3/6; in data set [2] (MES test, dose 10 µg/10 µL) it was 3/6; in data set [2] (MES test, dose 20 µg/10 µL) it was 4/6. Further, the “antifungal activity, diameter of the inhibitory zone (in words)” value in data set [3] was “slightly higher than the negative control”. The “antioxidant activity compared to the positive control (in words)” value in data set [4] is on record as “similar”.

Source of the values: PMC9611726, “Synthesis, Characterization and Biological Investigation of New N-Modified Spinorphin Analogs” (Pharmaceuticals, 2022).
